# Results: patent US20200179308A1, “USE OF ISOHUMULONES AND DERIVATIVES THEREOF TO TREAT POLYCYSTIC OVARY SYNDROME” (KINDEX PHARMACEUTICALS, INC., priority 2017, published 2020)
# Several values for one entry are separate records, joined by “and”; a condition that tells them apart may be missing. Equal entries are not always repeated. Entries after “also recorded” stand apart in the source; their conditions may differ.
# Legend:
# Type in all cases: in vivo
# DIO female mice [1] = experiment: IP-glucose tolerance test (IP-GTT); settings: one month after drug treatment, relative to VEH
# Protocol: (§1) To begin to assess the effects of drug treatment on glucose metabolism in female DIO mice, IP-glucose tolerance test (IP-GTT) was performed. One month after drug treatment, mice were tested for glucose tolerance by IP-GTT. The mice were fasted overnight for 16 hours, blood was drawn through the tail vein and baseline blood glucose was measured using a OneTouch Ultra glucometer. 20% dextrose was injected IP (2 g/kg body weight). Sample blood glucose was measured at 15, 30, 60, 90 and 120 minutes. One week after IP-GTT, the mice were tested for whole body insulin sensitivity by insulin tolerance test (ITT). Mice were fasted for seven hours, blood was drawn through the tail vein and baseline blood glucose was measured as above. 0.3 units/kg insulin was injected IP. Blood glucose of each mouse were measured at 15, 30, 60, 90 and 120 minutes. Area under the curve (AUC) was calculated for both the IP-GTT and the ITT.
# DIO female mice [2] = experiment: Estrous cyclicity by vaginal cytology over 15 consecutive days; settings: for percent of mice acyclic (did not complete even 1 complete estrous cycle): 15 day period beginning 10 days after treatment
# Protocol: Diet-induced obesity has been reported to impair estrous cyclicity in female mice (Brothers et al., Wu et al.). In these studies, DIO females were treated with KDT501, PIO or VEH beginning 8 weeks after change to high fat diet. Mice were assessed for estrous cycle stage for 15 consecutive days beginning 10 days after drug/VEH treatment. Vaginal cytology was assessed daily between 9 and 10 am for 15 consecutive days beginning the 10th days after drug treatment. Vaginal cells were collected via saline lavage and then fixed with 100% ethanol and stained with the DIFF Quick Stain Kit (IMEB Inc., San Marcos, Calif., USA). Stages were assessed based on vaginal cytology (Nelson et al. 1982): predominant cornified epithelium indicated the estrus stage, predominant nucleated cells indicated the proestrus stage, both cornified and leukocytes indicated the metestrus stage, and predominant leukocytes indicated the diestrus stage. The percentage of mice at each different cycle stage in each group was calculated.
# DIO female mice [3] = experiment: Fasting serum insulin, leptin and IL-6 by Luminex assay; settings: between VEH, KDT501 and PIO groups
# Protocol: (§2) To measure serum levels of LH, FSH, insulin, and leptin, serum samples were collected from mice via mandibular bleed. Mice were fasted overnight, and insulin or saline was injected IP according to the body weight of the mice (0.3 units/kg). Samples were obtained between 9:00 and 10:00 am on diestrus for baseline LH and FSH so as to avoid cycle dependent LH surges that occur in the late afternoon on the evening of proestrus. Rodent morning LH levels are not thought to vary in a cycle dependent manner (Helena et al. 2006). For fasting measurements of insulin, samples were also obtained between 9:00 and 10:00 am. Tissues were collected 10 minutes after insulin injection and snap-frozen in liquid nitrogen. Protein was obtained and measured as described previously (Brothers et al. 2010). To quantify the levels of phosphorylated AKT (pAKT), and AKT for different tissues of each individual animal after insulin or saline injection, Bio-Plex Phosphoprotein Detection Multiplex assays were used (Bio-Rad Laboratories, Hercules, Calif.). Protein ([…]) from each tissue was loaded into a 96-well microplate. Assays were conducted using the Luminex 200 system. Values were assessed as mean fluorescent intensity of phospho-specific signal. Serum was analyzed on a Luminex 20015 platform using the Milliplex Map mouse pituitary panel (LH/FSH) and a Milliplex mouse metabolic panel (insulin/leptin; Millipore, Billerica, Mass., USA). The assay detection limit for LH was 0.0019 ng/mL; for FSH, 0.0095 ng/mL; for insulin, 13.0 pg/mL; and for leptin, 4.2 pg/mL. Serum Testosterone was measured by radioimmunoassay at the University of Virginia Ligand Assay Core.
# DIO female mice [4] = experiment: Serum pituitary gonadotropin (LH, FSH) levels, Luminex Milliplex mouse pituitary panel; settings: KDT501 100 mg/kg, PIO 30 mg/kg oral once a day, compared to VEH
# Protocol: as §2
# [5] = Weight gain on high fat diet in DIO female mice; settings: female mice on 60% HFD; oral once a day; KDT501 100 mg/kg, PIO 30 mg/kg; compared to VEH
# Description: To generate DIO mice, 7 week old female mice on a mixed strain background (129SvJ, C57B16, CD1) were placed and maintained on a high fat diet (HFD) for 8 weeks prior to study and throughout the course of study. The high fat diet consisted of 60% Kcal from fat with an energy density of 5.24 kcal/gm (D12492, Research Diets, Inc., New Brunswick, N.J., USA).
# Wood chip bedding was maintained in these cages so that mice would not supplement their diet by eating the standard corncob bedding. Mice were weighed every week. The regular chow diet (Tekland Global 18% protein diet) was 24% Kcal from protein, 58% Kcal from carbohydrate, and 18% Kcal from fat with an energy density of 3.1 kcal/g (Harlan Laboratories, Indianapolis, Ind., USA). All procedures were performed with approval by the Johns Hopkins Animal Care and Use Committee under standard light and dark cycles.
# At 80 days after introduction to high fat diet, the test compounds were administered orally to the mice once a day. […]
# Female mice fed a high fat diet (60% calories from fat) gained approximately 4 grams of weight during the 8 week study period (FIG. 1). […] All data were analyzed with using Prism Software 5 GraphPad Software (La Jolla, CA) and are expressed as means ±SEM. Significance was determined via unpaired two- tailed Student t-test, one- or two-way ANOVA with the appropriate post-hoc tests. […]
# DIO female mice [6] = experiment: Liver lipid accumulation, H&E staining quantified with ImageJ
# Protocol: Liver tissues were collected and placed immediately in 10% formalin. 5 μm sections of tissue were stained with H&E by the Johns Hopkins Molecular and Comparative Pathobiology Phenotyping Core. Quantification of the area of fat in liver tissue was measured with NIH imageJ software and compared across groups.
# DIO female mice [7] = experiment: Insulin tolerance test (ITT), whole body insulin sensitivity
# Protocol: as §1
# [8] = 15 day period, KDT501 100 mg/kg, PIO 30 mg/kg
SMILES,"glucose tolerance (blood glucose after IP dextrose) (DIO female mice [1]; 16 h fast, 2 g/kg dextrose IP)","glucose tolerance, IP-GTT area under the curve (AUC) (DIO female mice [1])","percent of mice acyclic (did not complete even 1 complete estrous cycle) (DIO female mice [2]; KDT501 100 mg/kg, PIO 30 mg/kg)",percentage of mice that completed 3 complete estrous cycles (DIO female mice [2]; [8]),percentage of mice that had (at least) two complete estrous cycles (DIO female mice [2]; [8]),percentage of mice that had one complete estrous cycle (DIO female mice [2]; [8]),"number of complete estrous cycles per mouse (DIO female mice [2]; 15 days of analysis, compared to VEH)",fasting serum IL-6 level (DIO female mice [3]),fasting serum insulin level (DIO female mice [3]),fasting serum leptin level (DIO female mice [3]),morning serum FSH level (DIO female mice [4]),morning serum LH level (DIO female mice [4]),ratio of LH/FSH (DIO female mice [4]),weight gain (Δ weight from week 0) over the 8 week study period [5],"fat / lipid accumulation in liver, KDT501 versus PIO (DIO female mice [6]; KDT501 100 mg/kg compared to PIO 30 mg/kg)","fat / lipid accumulation in liver (DIO female mice [6]; KDT501 100 mg/kg, PIO 30 mg/kg, relative to VEH)","insulin sensitivity, ITT area under the curve (AUC) (DIO female mice [7]; 0.3 units/kg insulin IP, relative to VEH)","fasting glucose levels (7 hrs fasting) (DIO female mice [7]; before insulin injection, compared to VEH controls)"
"CC(C)CCC(=O)[C@@]1(O)C([O-])=C(C(=O)CC(C)C)C(=O)[C@@H]1CCC(C)C.[K+] [KDT501, Potassium salt of (+)-KDT500]",improved glucose tolerance,significant improvement in glucose tolerance,7.1%,20%,60%,Roughly an even percentage,significantly more complete estrous cycles; also recorded: significant increase in number of cycles/mouse,not significantly different; also recorded: No significant differences,not significantly different; also recorded: No significant differences,not significantly different; also recorded: No significant differences,not significantly altered,not significantly altered,no significant difference,no weight gain; also recorded: attenuated weight gain,significantly less lipid accumulation; also recorded: significantly less fat,significantly less lipid accumulation; also recorded: significant reduction in fat,improved insulin sensitivity,lower fasting glucose levels
"CCc1ccc(CCOc2ccc(CC3SC(=O)NC3=O)cc2)nc1 (stereo not drawn) [PIO, Pioglitazone, reference compound]",–,–,20%,21% and 28%,25-28%,–,–,–,–,–,–,–,–,–,–,–,–,–
